The nature of one series: clinical. The note with it: human, in vivo.
The conditions of series [1]: human, in vivo, po.
Description: (§1) Indwelling catheters were placed into the arms of test subjects. A single 100 mg dose of stable-labeled (non-radioactive) CBZ (SL-CBZ) was then infused over 10 minutes. At the end of the infusion, the subject's usual morning dose of oral CBZ, less 100 mg, was administered. Blood pressure, heart rate and rhythm, and infusion site discomfort were monitored during and for an hour after the infusion. […] Unbound CBZ was measured following ultrafiltration. CBZ concentration-time data were analyzed using a non-compartmental approach with the pharmacokinetic software, WinNONLIN.
(§2) A validated LC-MS assay for SL-CBZ, CBZ and their respective epoxide metabolites was used. […] CBZ was assayed similar to that described by Osterloh and Bertilsson. […] After shaking and centrifugation, the organic layer was removed and evaporated under nitrogen gas to dryness. Each sample was then redissolved with the addition of 25 microliters of ethyl acetate. Plasma samples were measured for unbound and total CBZ, CBZ glucuronide and CBZ-E by LCMS. Unbound drug was separated from the bound fraction by ultrafiltration. The mobile phase consists of 50% 0.05 M ammonium acetate buffer, pH 4.7, 50% MeOH at a flow rate of 0.4 ml/min, on a reverse phase C-18 column.
The nature of series [2]: Steady-state trough concentrations, oral observed vs IV predicted by the method of superposition. Format: in vivo, human. As for the experimental part:
The most relevant factor in considering the dose adjustment for intravenously administered CBZ is for treatment centers to maintain plasma concentrations of CBZ above the therapeutic threshold. Following administration of 100 mg of IV CBZ, observed plasma concentrations followed a […] decay indicating a very fast distribution to tissues followed by a slower elimination of drug out of the body. Steady-state plasma concentrations of IV CBZ were predicted using the method of superposition. Plasma concentrations following a single dose of IV CBZ were scaled-up to steady-state conditions, assuming linear pharmacokinetics, using an accumulation ratio, a mean F of 0.7, and correcting for dose (see Equations 1 and 2). As a result, this calculation allows for a comparison of steady-state trough plasma concentrations following oral (Co and IV (C6 hr) administration of CBZ respectively assuming a dosing interval of once every six hours for the IV formulation.
[formula] Where Cpss(IV) is the plasma concentration (C) at steady state for IV administration; CpsD is the plasma concentration after a single dose; Int is the y-intercept resulting from linear regression of the elimination phase; λ is the terminal elimination rate constant; Dpo is the total oral daily dose; DIV is the single IV dose; F is the absolute bioavailability; T is the dosing interval; and t is the time of each observed concentration.

The text below walks through data of patent US9770407B2 (Lundbeck Pharmaceuticals LLC, priority 2005, dated 2017).

The structures appear in SMILES notation.

Description for clinical: as §1, §2

Turning to `NC(=O)N1c2ccccc2C=Cc2ccccc21` [Carbamazepine, 5H-dibenz[b,f]azepine-5-carboxamide], the AUC came out at 36500 ng·h/mL in “clinical” (iv, 100 mg, AUC 0-° o) and 87200 ng·h/mL in “clinical” (po, AUCss (po)). Also, the clearance in “clinical” (iv, CL) is 0.6 mL/min/kg. Moreover, the bioavailability in “clinical” (po, absolute bioavailability of oral CBZ during maintenance therapy centers around) was in the range of 70 to 75%; in “clinical” (po, average oral bioavailability), 65 to 75%. The “calculated mean F value” in series [1] is recorded as 75%. Further, the “median F value” in series [1] was 67%. The “statistical comparison of trough values following oral and IV administration” value in series [2] (6-hour time-point, α=0.10, p=0.1931) is given as “not statistically different”; in series [2] (12-hour time-point, post-dose), “significantly different”. In addition, in series [2] (Co (oral only) vs C6 hr (IV only), N=62), the “Difference Between the Means” value was 0.09456. In addition, the concentration at 6 h in series [2] (human, plasma, 100 mg, predicted by superposition, IV every six hours, mean F=0.70, N=62, read-out: C6 hr (IV only), mean steady-state plasma concentration at the 6-hour time-point) was 8040 ng/mL. In addition, in series [2] (observed, oral twice daily dosing, n=62 evaluable subjects), the Co (oral only), mean oral steady-state trough plasma concentration was 8.98 µg/mL.

As usually defined, the AUC is the area under the concentration-time curve, a measure of exposure. A higher AUC goes with more exposure. As a reminder, the clearance is the rate of elimination divided by the concentration. By bioavailability is commonly meant dose-corrected exposure relative to a reference, in per cent. A low value points to little systemic uptake.
